Experimental data taken from ChEMBL document CHEMBL1201862, “PubChem BioAssay data set” (2004).
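Grown in 96-well plates, cells were treated for 48 hours with each compound at five concentrations. Insufficient inhibition: endpoint recorded as highest concentration tested. Here, GI50 denotes the concentration required for 50% inhibition of growth.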 Active and inactive are the calls of the source. Cut-off read from the data, not from the text of the source: active = GI50 up to about 1.1 µM and inactive = higher.

Columns and labels:
Assay in all cases: DTP human tumour cell line panel, 48 h
786-0 = test system: 786-0
A498 = test system: A498
A549 = test system: A549
ACHN = test system: ACHN
CAKI-1 = test system: CAKI-1
CCRF-CEM = test system: CCRF-CEM
COLO 205 = test system: COLO 205
DLD-1 = test system: DLD-1
DMS-273 = test system: DMS-273
HCC 2998 = test system: HCC 2998
HCT-116 = test system: HCT-116
HCT-15 = test system: HCT-15
HL-60 = test system: HL-60
HOP-18 = test system: HOP-18
HOP-62 = test system: HOP-62
HOP-92 = test system: HOP-92
HT-29 = test system: HT-29
IGROV-1 = test system: IGROV-1
K562 = test system: K562
KM-20L2 = test system: KM-20L2
KM12 = test system: KM12
LOX IMVI = test system: LOX IMVI
LXFL 529 = test system: LXFL 529
M14 = test system: M14
M19-MEL = test system: M19-MEL
MOLT-4 = test system: MOLT-4
Malme-3M = test system: Malme-3M
NCI-H460 = test system: NCI-H460
NCI-H522 = test system: NCI-H522
OVCAR-4 = test system: OVCAR-4
OVCAR-5 = test system: OVCAR-5
OVCAR-8 = test system: OVCAR-8
RPMI-8226 = test system: RPMI-8226
RXF 393 = test system: RXF 393
RXF 631 = test system: RXF 631
SF-268 = test system: SF-268
SF-295 = test system: SF-295
SF-539 = test system: SF-539
SK-MEL-2 = test system: SK-MEL-2
SK-MEL-5 = test system: SK-MEL-5
SK-OV-3 = test system: SK-OV-3
SN12C = test system: SN12C
SNB-19 = test system: SNB-19
SNB-75 = test system: SNB-75
SNB-78 = test system: SNB-78
SR = test system: SR
SW-620 = test system: SW-620
TK-10 = test system: TK-10
U-251 = test system: U-251
UACC-257 = test system: UACC-257
UACC-62 = test system: UACC-62
UO-31 = test system: UO-31
BT-549 = test system: BT-549
DMS-114 = test system: DMS-114
DU-145 = test system: DU-145
EKVX = test system: EKVX
Hs-578T = test system: Hs-578T
MCF7 = test system: MCF7
MDA-MB-231 = test system: MDA-MB-231
MDA-MB-435 = test system: MDA-MB-435
MDA-N = test system: MDA-N
NCI-H226 = test system: NCI-H226
NCI-H23 = test system: NCI-H23
NCI/ADR-RES = test system: NCI/ADR-RES
OVCAR-3 = test system: OVCAR-3
PC-3 = test system: PC-3
SK-MEL-28 = test system: SK-MEL-28
T47D = test system: T47D
XF498 = test system: XF498

Measured: GI50

COc1cc2ccnc3c2c(c1OC)-c1coc(SC)c1-3
inactive: 786-0 57 µM | A498 19.5 µM | A549 > 100 µM | ACHN > 100 µM | CAKI-1 20.8 µM | CCRF-CEM > 10 µM | COLO 205 > 100 µM | DLD-1 95.1 µM | DMS-273 60.8 µM | HCC 2998 > 100 µM | HCT-116 52.8 µM | HL-60 9.18 µM | HOP-18 38.6 µM | HOP-62 54.8 µM | HOP-92 29 µM | HT-29 94.8 µM | IGROV-1 > 100 µM | K562 > 100 µM | KM-20L2 > 100 µM | KM12 > 100 µM | LOX IMVI 82 µM | LXFL 529 78.7 µM | M14 > 100 µM | M19-MEL > 100 µM | MOLT-4 22.1 µM | Malme-3M > 100 µM | NCI-H460 97.3 µM | NCI-H522 32.4 µM | OVCAR-4 48.6 µM | OVCAR-5 > 100 µM | OVCAR-8 35.2 µM | RPMI-8226 13 µM | RXF 393 4.67 µM | RXF 631 > 100 µM | SF-268 92 µM | SF-295 13.4 µM | SF-539 56.5 µM | SK-MEL-2 > 100 µM | SK-MEL-5 54.7 µM | SK-OV-3 > 100 µM | SN12C > 100 µM | SNB-19 > 100 µM | SNB-75 19.7 µM | SNB-78 > 100 µM | SR 40.2 µM | SW-620 > 100 µM | TK-10 > 100 µM | U-251 67.1 µM | UACC-257 > 100 µM | UACC-62 86.1 µM | UO-31 26.4 µM
> 100 µM: HCT-15

O=C1c2ccccc2C(=O)c2c1ccc1conc21
2.75 µM: HCT-15
active: CCRF-CEM 1.04 µM | HL-60 0.402 µM | HOP-92 1.07 µM | LOX IMVI 0.469 µM | MCF7 1.03 µM | MDA-MB-231 0.221 µM | MDA-MB-435 0.605 µM | MDA-N 0.392 µM | MOLT-4 0.632 µM | NCI/ADR-RES 0.649 µM | OVCAR-3 0.296 µM | OVCAR-4 0.7 µM | RPMI-8226 0.875 µM | T47D 0.398 µM
inactive: 786-0 2.75 µM | A498 11.9 µM | A549 4.95 µM | ACHN 1.94 µM | BT-549 1.91 µM | CAKI-1 4.22 µM | COLO 205 5.65 µM | DLD-1 2.55 µM | DMS-114 1.83 µM | DMS-273 3.44 µM | DU-145 2.59 µM | EKVX 2.08 µM | HCC 2998 15.8 µM | HCT-116 1.52 µM | HOP-18 13.4 µM | HOP-62 4.3 µM | HT-29 4.37 µM | Hs-578T 8.93 µM | IGROV-1 2.98 µM | K562 1.85 µM | KM-20L2 15.4 µM | KM12 3.24 µM | LXFL 529 1.8 µM | M14 2.26 µM | M19-MEL 1.32 µM | Malme-3M 2.48 µM | NCI-H226 7.06 µM | NCI-H23 1.36 µM | NCI-H460 5.51 µM | NCI-H522 1.7 µM | OVCAR-5 3 µM | OVCAR-8 1.66 µM | PC-3 1.48 µM | RXF 393 3.08 µM | RXF 631 2.85 µM | SF-268 2.56 µM | SF-295 2.65 µM | SF-539 1.95 µM | SK-MEL-28 3.41 µM | SK-MEL-2 3.52 µM | SK-MEL-5 1.92 µM | SK-OV-3 6.46 µM | SN12C 1.87 µM | SNB-19 5.48 µM | SNB-75 7.59 µM | SNB-78 2.84 µM | SR 1.36 µM | SW-620 2.1 µM | TK-10 6.44 µM | U-251 1.62 µM | UACC-257 1.98 µM | UACC-62 2.45 µM | UO-31 4.33 µM

Cc1ccc(C)c(NC(=O)CC2C(=O)Nc3ccccc3S2(=O)=O)c1 (stereo not drawn)
inactive: 786-0 22.8 µM | A498 30.2 µM | A549 > 100 µM | ACHN 48.2 µM | CAKI-1 31.8 µM | CCRF-CEM > 100 µM | DLD-1 > 100 µM | DMS-114 45.4 µM | DMS-273 28.1 µM | EKVX 31.2 µM | HCC 2998 77.8 µM | HCT-116 52.2 µM | HL-60 49.9 µM | HOP-92 38.8 µM | HT-29 > 100 µM | IGROV-1 52.8 µM | K562 53.1 µM | KM-20L2 > 100 µM | LOX IMVI 51.3 µM | LXFL 529 > 100 µM | M14 44.5 µM | M19-MEL 63 µM | MOLT-4 > 100 µM | Malme-3M 31.5 µM | NCI-H226 36.8 µM | NCI-H23 61.1 µM | NCI-H460 > 100 µM | OVCAR-3 42 µM | OVCAR-4 19 µM | OVCAR-5 > 100 µM | OVCAR-8 37.2 µM | RPMI-8226 36.6 µM | RXF 393 27.9 µM | RXF 631 > 100 µM | SF-268 42.7 µM | SF-295 > 100 µM | SF-539 25.5 µM | SK-MEL-28 72.9 µM | SK-MEL-2 > 100 µM | SK-MEL-5 27.7 µM | SN12C > 100 µM | SNB-19 75 µM | SNB-75 21.5 µM | SNB-78 68.4 µM | SR 61 µM | SW-620 36.6 µM | TK-10 > 100 µM | U-251 43.3 µM | UACC-257 > 100 µM | UACC-62 46.2 µM | UO-31 49.7 µM | XF498 27.8 µM
87.9 µM: HCT-15

Oc1ccc([Te]CCNCC[Te]c2ccc(O)cc2)cc1
inactive: 786-0 28.7 µM | A498 13.4 µM | A549 3.66 µM | ACHN 20.1 µM | CAKI-1 30.5 µM | CCRF-CEM 2.97 µM | COLO 205 7.13 µM | DLD-1 23 µM | DMS-273 18.2 µM | EKVX 3.56 µM | HCC 2998 12.8 µM | HCT-116 5.96 µM | HL-60 5.55 µM | HOP-18 26.4 µM | HOP-62 18.2 µM | HT-29 15.6 µM | IGROV-1 27.9 µM | K562 10 µM | KM-20L2 14.4 µM | KM12 15 µM | LOX IMVI 12.5 µM | LXFL 529 3.41 µM | M14 17.6 µM | M19-MEL 7.29 µM | MOLT-4 4.49 µM | Malme-3M 22.6 µM | NCI-H226 21.3 µM | NCI-H23 4.78 µM | NCI-H460 4.67 µM | OVCAR-5 16 µM | OVCAR-8 16.3 µM | RPMI-8226 16.4 µM | RXF 631 6.05 µM | SF-268 11.1 µM | SF-295 4.32 µM | SF-539 > 10 µM | SK-MEL-5 11.9 µM | SK-OV-3 25 µM | SN12C 9.82 µM | SNB-19 40.9 µM | SNB-75 6.55 µM | SNB-78 22 µM | SR 5.19 µM | SW-620 23.1 µM | TK-10 30.3 µM | U-251 6.22 µM | UACC-257 36 µM | UACC-62 17 µM | UO-31 9.2 µM | XF498 5.11 µM

CC1=Nc2ccccc2C1C(Cc1ccccc1N)c1c(C)[nH]c2ccccc12 (stereo not drawn)
16.4 µM: HCT-15
inactive: 786-0 15.1 µM | A498 16 µM | A549 18.3 µM | ACHN 15.2 µM | CCRF-CEM 17.7 µM | COLO 205 16.6 µM | DLD-1 18.2 µM | DMS-114 19.2 µM | EKVX 20.5 µM | HCC 2998 15.4 µM | HCT-116 16.9 µM | HL-60 14 µM | HOP-18 12.4 µM | HOP-62 14.4 µM | HOP-92 12.3 µM | HT-29 17.8 µM | IGROV-1 17.4 µM | K562 19.5 µM | KM-20L2 15 µM | KM12 16.6 µM | LOX IMVI 15 µM | LXFL 529 16 µM | M14 15 µM | M19-MEL 17.4 µM | MOLT-4 20.9 µM | Malme-3M 17.3 µM | NCI-H226 15 µM | NCI-H23 18.2 µM | NCI-H460 17.2 µM | NCI-H522 14 µM | OVCAR-3 15.1 µM | OVCAR-5 17.6 µM | OVCAR-8 16.6 µM | RPMI-8226 18.5 µM | RXF 393 20.2 µM | RXF 631 18.2 µM | SF-268 8.17 µM | SF-295 12.6 µM | SF-539 17.6 µM | SK-MEL-28 18.8 µM | SK-MEL-2 5.92 µM | SK-MEL-5 14.6 µM | SK-OV-3 24.6 µM | SN12C 18.7 µM | SNB-19 22.7 µM | SNB-75 17.5 µM | SR 21.9 µM | SW-620 15.5 µM | TK-10 16.9 µM | U-251 16.8 µM | UACC-257 17.8 µM | UACC-62 13.5 µM | UO-31 14.7 µM | XF498 18.5 µM
